In patent US20050181474A1, “Transport peptides and uses therefor” (priority 2002, published 2005):

Tests used:
skin = test: Homing of peptide after intravenous delivery in vivo; set-up: species or system mouse
Method: (§1) Another method used was to perfuse murine hearts ex-vivo on a Langendorf apparatus, administer the phage through the coronary circulation, and then rescue the phage that entered the myocardium. In vivo experiments were also done in which phage was injected into the general circulation of a mouse, any phage binding to the vasculature was removed by treatment with an enzyme solution, and then phage that had entered tissue parenchyma were rescued and enriched.

[1] = test system: heart, skeletal muscle, skin, brain; test: In vivo translocation of peptide-displaying phage into tissue parenchyma; set-up: species or system mouse
Method: as §1

[2] = test system: rat aortic and adult human smooth muscle cells; test: Internalization of rhodamine-labeled peptide into smooth muscle cells; type: cell-based; conditions: FIG. 3B
From the text: (§2) To test the properties of the peptides defined, small scale synthesis of these peptides was ordered, labeled with rhodamine for fluorescent localization, from the Keck facility at Yale University. They were then used in in vitro and in vivo experiments to investigate the ability of these peptides to enter cells and tissues.
(§3) FIGS. 3A and 3B show pictures depicting highly efficient internalization of these peptides into cells in culture. One such transport peptide is RRGRRRGR.

[3] = test system: parenchyma of the heart (myocardium); test: Uptake of rhodamine-labeled peptide into heart after coronary infusion; type: in vivo, mouse; conditions: single pass infusion through the coronary circulation, FIGS. 4A-C
From the text: In experiments designed to test the ability of these peptides to cross the endothelium and enter cells in vivo, synthetic transport peptides labeled with the fluorescent marker rhodamine were infused into the coronary circulation of mice. […] Peptides selected for internalization were capable of internalizing into the myocardium efficiently.
One such transport peptide is RRGRRRGR.

[4] = test system: endothelial cells (HUVEC cells); test: Internalization of rhodamine-labeled peptide into endothelial cells; type: cell-based, human; conditions: FIG. 3A
From the text: as §2, §3

GSRHPPL (Transport peptide)
homing (tissue targeting) (skin): appears to significantly target skin

LLAVPAA (Transport peptide)
crossing the blood brain barrier and entry into the brain [1]: appears capable of crossing the blood brain barrier and entry into the brain
translocating phage into tissues ([1]; phage displaying the peptide, heart, skeletal muscle, skin): capable of translocating phage into heart, skeletal muscle, skin

RRGRRRGR (Transport peptide)
uptake (internalization) into smooth muscle cells [2]: efficient uptake
uptake into the parenchyma of the heart [3]: efficient uptake
uptake (internalization) into endothelial cells [4]: efficient uptake
